According to patent EP0738149B1 (priority 1994, dated 1995):
Like-named read-outs stand apart in the source and are kept apart here.

What was measured:
rats [1] = assay: Maximal electroshock (MES) model in rats, p.o.;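 further: rat MES model gauging antiepileptic efficacy versus generalized and partial seizures after oral dosing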; type: in vivo; settings: Rattus norvegicus, po, read-out: RATS MES 50
Male mongolian gerbils = assay: Global brain ischemia in gerbils (CA1 pyramidal neurons); type: in vivo; settings: 3 injections, fraction of hippocampi protected from ischemia, 14 days post-ischemia
Method in brief: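 Global ischemia induced by clamping each artery for 5 min. Compound given ip 2 min after clamp removal, then daily for the next 2 days (3 doses). CA1 pyramidal neurons counted 14 days post-ischemia in H&E-stained anterior hippocampal sections; percent protection is the fraction of hippocampi protected at the stated dose.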

mice = assay: in vivo
Protocol: (§1) Neurotoxicity of the claimed agents was also assessed in mice (i.p. administration) by the rotorod ataxia test and/or in rats (p.o. administration) by positional sense test and gait stance test. […] The term quantitating the neurotoxicity is the medial neurological toxic dose (TD50), was determined in the above tests.

in vivo = settings: mouse, in vivo, ip
Protocol: as §1

male ICR albino mice = assay: Hypobaric hypoxia survival time in mice; type: in vivo
Method in brief: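 Drugs given i.p. 1 h before hypobaric hypoxia at 100 mmHg; time to respiratory arrest recorded, cutoff 15 min. Effect expressed as percent of saline- or vehicle-control survival time. Each dose tested in two groups of 4 mice, controls run before and after.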

[2] = Neurotoxicity in rats (positional sense test and gait stance test), p.o.; settings: rat, in vivo, po
Protocol: as §1

rats [3] = assay: as above; settings: rats, p.o.; Table 16
Protocol: as §1

hypoxic rat [4] = assay: Amphetamine-induced stereotype behavior in hypoxic rat, Experiments 2A and 2B; type: in vivo; settings: for total number of lateral head movements per minute: Exp 2A, 0.5mg/kg daily 29 days, D-amphetamine sulfate 0.5mg/kg s.c., 45-60 min after, Mean ± SEM; for lateral head movements: Exp 2B, 0.3mg/kg daily i.p. 14 days, 12 month-old rats
Protocol: Experiment 2A. Wistar male rats, 15-19 month-old, were exposed to a single hypoxic episode as described above. […] Rats pretreated for 29 days with daily doses of the test drugs (0.5mg/kg), received a sub-cutaneous (s.c.) injection of D-amphetamine sulfate at a dose of 0.5mg/kg. D-amphetamine is known to cause an enhancement of the effects of CNS dopamine by a mechanism involving dopamine release, and blockage of its uptake and its metabolism by MAO. The behavioral manifestation of amphetamine action is a stereotypic pattern of lateral head movements.
Counts of lateral head movements were taken over two successive intervals of 1 min each, 45-60 min after the injection of amphetamine and then averaged.
Experiment 2B. […] The drugs were given by i.p. injection. • 3) Duration of the treatment: 14 days.

hypoxic rat [5] = assay: Passive avoidance test in hypoxic rat, Experiment 3A; type: in vivo; settings: Exp 3A, day 13 of drug treatment 0.5mg/kg/Day, Mean ± SEM; for latency of response, 48h after electroshock: maximum 300 seconds
Protocol: Experiment 3A: Wistar male rats, 15-19 month-old, were exposed to a single hypoxic episode as described above. […] The passive avoidance test was performed on day 13 after initiation the drug treatment. The apparatus consisted of a lit chamber that can be separated from a dark chamber by a sliding door. At training, a rat is placed in the lit chamber for 30 seconds, then the door is opened. The rat moves to the dark chamber after a short delay - the latency, that is recorded. Upon entry into the dark chamber, the door is shut closed and a 0.3-mA footshock is delivered for 3 seconds by a Grass S-88 stimulator. Retention of the experience is determined after 48 hours by repeating the test and recording the latency to an arbitrary maximum of 300 seconds. Longer latencies are ascribed to retention of memory and improved cognition.

[6] = 50 mg/kg ip one hour prior to hypoxia
[7] = 100 mg/kg ip one hour prior to hypoxia
[8] = dose cell empty (line below 50 mg/kg ip)

Row | SMILES | ED50 (rats [1]; rats, p.o., Table 15) | PERCENT PROTECTION (Male mongolian gerbils; 0.1 mg/kg ip) | PERCENT PROTECTION (Male mongolian gerbils; 1.0 mg/kg ip) | PERCENT PROTECTION (Male mongolian gerbils; 10.0 mg/kg ip) | MICE TD50 (mice; mouse, in vivo, ip) | TD50 (in vivo; MICE TD50) | PROTECTION % OF RESPECTIVE CONTROL (male ICR albino mice; [6]) | PROTECTION % OF RESPECTIVE CONTROL (male ICR albino mice; [7]) | PROTECTION % OF RESPECTIVE CONTROL (male ICR albino mice; [8]) | TD50 [2] | RATS TD50 (rats [3]) | ED50 (rats [1]) | total number of lateral head movements per minute (hypoxic rat [4]) | lateral head movements (hypoxic rat [4]) | MICE TD50 (mice; mice, i.p., Table 16) | TD50 (in vivo) | latency of response, before electroshock (hypoxic rat [5]) | latency of response, 48h after electroshock (hypoxic rat [5])
1 | CC(=O)N[C@@H]1CCc2ccccc21 [Example 18, (R)-N-Acetyl-1-aminoindan] | 14 mg/kg | 25.0% | 25.0% | 66.7% | 75 mg/kg | 75 mg/kg | 271±193 % OF RESPECTIVE CONTROL | 397±244 % OF RESPECTIVE CONTROL | 383±233 % OF RESPECTIVE CONTROL | > 500 mg/kg | >500 mg/kg | – | – | – | – | – | – | –
2 | N[C@@H]1CCc2ccccc21 [R-AI, (R)-1-aminoindan] | – | 25.0% | 25.0% | 25.0% | – | – | 358±224 % OF RESPECTIVE CONTROL | 395±199 % OF RESPECTIVE CONTROL | 411±174 % OF RESPECTIVE CONTROL | 492 mg/kg | 492 mg/kg | 184 mg/kg | 108 ± 3 per minute | 92 ± 3 | 71 mg/kg | 71 mg/kg | 53 ± 6 s | 245 ± 33 s
3 | C#CCN(C)[C@H](C)Cc1ccccc1 [deprenyl] | – | – | – | – | – | – | – | – | – | – | – | – | 76 ± 3 per minute | 77 ± 3 | – | – | 53 ± 7 s | 153 ± 37 s
